According to ChEMBL document CHEMBL3272051, “Some 9-hydroxycannabinoid-like compounds. Synthesis and evaluation of analgesic and behavioral properties” (J Med Chem, 1979):
Active and inactive are the calls of the source. No cut-off for these calls is given here.

Tests used:
[1] = test system: Mus musculus; assay: Analgesic activity in sc dosed mouse by hot plate test; format: functional
[2] = test system: Canis familiaris; assay: Effect on overt behavior in dog assessed as static ataxia at 0.05 to 10 mg/kg, iv; format: ADME, organism-based, Canis lupus familiaris; parameters: dose 0.05-10 mg/kg, route intravenous; conditions: in vivo
[3] = test system: Canis familiaris; assay: Effect on overt behavior in dog assessed as hyperreflexia at 0.05 to 10 mg/kg, iv; format: organism-based, Canis lupus familiaris; parameters: dose 0.05-10 mg/kg, route intravenous; conditions: in vivo
[4] = test system: Canis familiaris; assay: Effect on overt behavior in dog assessed as prostration at 4 to 10 mg/kg, iv; format: organism-based, Canis lupus familiaris; parameters: dose 4-10 mg/kg, route intravenous; conditions: in vivo
[5] = test system: Mus musculus; assay: Analgesic activity in mouse at 10 mg/kg, sc by tail-flick test; format: functional, organism-based; parameters: dose 10 mg/kg
[6] = test system: Canis familiaris; assay: Effect on overt behavior in dog assessed as depression at 0.05 to 10 mg/kg, iv; format: organism-based, Canis lupus familiaris; parameters: dose 0.05-10 mg/kg, route intravenous; conditions: in vivo
[7] = organism: Mus musculus; assay: Analgesic activity in mouse by tail-flick test relative to morphine; format: functional
[8] = organism: Mus musculus; assay: Analgesic activity in mouse assessed as inhibition of p-phenylquinone-induced writhing relative to morphine; format: functional
[9] = organism: Mus musculus; assay: animal or person; format: functional; conditions: Tail, sc
[10] = test system: Mus musculus; assay: Analgesic activity in mouse at 20 mg/kg, sc by hot plate test; format: functional, organism-based; parameters: dose 20 mg/kg
[11] = test system: Mus musculus; assay: Analgesic activity in mouse at 50 mg/kg, sc by hot plate test; format: functional, organism-based; parameters: dose 50 mg/kg

Row | Compound | ED50 [1] [mg/kg] | Activity [2] | Activity [3] | Activity [4] | other results
1 | CCCCCc1cc(O)c2c(c1)OC(C)(C)c1ccc(O)cc1-2 | 35.6 | Non-toxic | Non-toxic | Toxic | Activity [5]: inactive; Activity [6]: Toxic
2 | CCCCCc1cc(O)c2c(c1)OC(C)(C)[C@@H]1CC[C@@H](O)C[C@@H]21 | 1.6 | – | – | Toxic | fold change (FC) [7]: 5; fold change (FC) [8]: 20; ED50 [9]: 1 mg/kg
3 | CCCCCc1cc(O)c2c3c(c(=O)oc2c1)CCC(O)C3 (racemic) | – | Non-toxic | Non-toxic | Toxic | Activity [6]: Toxic; Activity [10]: inactive
4 | CCCCCc1cc(O)c2c(c1)OC(C)(C)[C@@H]1CCC(C)=C[C@@H]21 [DRONABINOL] | – | – | – | Toxic | –
5 | CCCCCc1cc(O)c2c(c1)OC(C)(C)[C@H]1CC[C@H](O)C[C@H]21 | – | – | – | Toxic | –
6 | CCCCCc1cc(O)c2c(c1)OC(C)(C)C1CCC(O)CC21 (racemic) | 2.9 | – | – | Toxic | –
7 | CCCCCc1cc(O)c2c(c1)OC(C)(C)[C@@H]1CC[C@H](O)C[C@@H]21 | – | – | – | Toxic | –
8 | CCCCCc1cc(O)c2c(c1)OC(C)(C)C1=C2CC(O)CC1 (racemic) | – | Toxic | Toxic | Toxic | Activity [11]: inactive
9 | CCCCCc1cc(O)c2c(c1)OC(C)(C)[C@@H]1CC[C@@H](O)C=C21 (racemic) | – | Toxic | Toxic | Toxic | Activity [11]: inactive
10 | CN1CC[C@]23c4c5ccc(O)c4O[C@H]2[C@@H](O)C=C[C@H]3[C@H]1C5.Cl [MORPHINE HYDROCHLORIDE] | 1.2 | – | – | – | –
